Laboratory results published in patent US5595969A, “Variants of human corticosteroid binding globulin” (Allelix Biopharmaceutical Inc., priority 1995, dated 1997).
Residue numbers refer to the chain shown, from its start.

Legend:
[1] = target: T1, human corticosteroid binding globulin (CBG) variant Thr240 to Ala (glycosylation site 238 disrupted) (Homo sapiens, UniProt P08185, T262A); experiment: Steroid binding capacity by saturation analysis with [3H]-cortisol, dextran-coated charcoal; details: CHO culture media
T1 construct: in order to isolate a full-length CBG cDNA; made in house; host or cells: CHO cells (CHO pro), measured in culture medium
T1 sequence (P08185 23-405 T262A): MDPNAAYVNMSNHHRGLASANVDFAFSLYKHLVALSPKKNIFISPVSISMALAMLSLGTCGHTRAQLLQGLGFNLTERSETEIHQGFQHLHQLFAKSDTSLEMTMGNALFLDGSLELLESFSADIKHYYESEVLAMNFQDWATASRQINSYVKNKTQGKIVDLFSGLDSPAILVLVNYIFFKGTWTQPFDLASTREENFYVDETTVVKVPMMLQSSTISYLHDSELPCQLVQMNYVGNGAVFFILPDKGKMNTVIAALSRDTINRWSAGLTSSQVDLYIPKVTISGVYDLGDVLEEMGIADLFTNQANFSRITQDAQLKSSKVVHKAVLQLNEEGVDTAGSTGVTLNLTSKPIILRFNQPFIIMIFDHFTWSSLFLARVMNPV
Protocol: (§1) The steroid binding capacity of the CBG variants in the culture media was measured by saturation analysis using as a labelled ligand [^3 H]-cortisol (55.8 Ci/mmol) obtained from DuPont, and dextran-coated charcoal as a separation agent as described by Hammond et al. in Clin. Chim. Acta, 1983, 132:101.
(§2) Initially, samples of culture media were added to tubes of PBS containing [^3 H]-cortisol. The mixture in the tubes was vortex mixed and incubated at room temperature for 1 h followed by a further incubation in an ice-water for 15 min. Dextran-coated charcoal (DCC) suspension at 0° C. (1.25 g Norit "A"(Amend Drug and Chemical Co.) and 0.125 g Dextran T-70 (AB Pharmacia) in 0.01 mol/l phosphate-buffered saline containing 0.1% gelatin, pH7) was added to the tubes to bind excess labelled cortisol. The tubes were incubated for […] 0° C. After centrifugation at 3000 X g for 5 min at 4° C. to sediment the DCC, the supernatants were decanted into scintillation counting vials containing 4 ml Aqueous Counting Scintillant (Amersham), which were capped, shaken and counted for 10 min or until 10,000 cpm had accumulated. The binding capacity of the CBG variants was calculated in nmol/L after correction for dilution and the dissociation of bound complexes during the DCC treatment (12% for CBG).

[2] = target: T2, human corticosteroid binding globulin (CBG) variant Asn238 to Gln (glycosylation site 238 disrupted) (Homo sapiens, UniProt P08185, N260Q); experiment: as above; details: CHO culture media
T2 construct: made in house; host or cells: CHO cells (CHO pro), measured in culture medium
T2 sequence (P08185 23-405 N260Q): T1 sequence (P08185 23-405 T262A) with N238Q, A240T
Protocol: as §1, §2

[3] = target: T3, human corticosteroid binding globulin (CBG) variant glycosylated solely at position 74 (Homo sapiens, UniProt P08185, N176Q/N260Q/N31Q/N330Q/N369Q); experiment: Steroid binding of CBG variant with [3H]-cortisol; details: CHO culture media
T3 construct: made in house; host or cells: CHO cells (CHO pro), measured in culture medium
T3 sequence (P08185 23-405 N31Q/N176Q/N260Q/N330Q/N369Q): T1 sequence (P08185 23-405 T262A) with N9Q, N154Q, N238Q, A240T, N308Q, N347Q
Protocol: Chim. Acta, 1983, 132:101. Initially, samples of culture media were added to tubes of PBS containing [^3 H]-cortisol. The mixture in the tubes was vortex mixed and incubated at room temperature for 1 h followed by a further incubation in an ice-water for 15 min. Dextran-coated charcoal (DCC) suspension at 0° C. […] The tubes were incubated for […] 0° C. […] The binding capacity of the CBG variants was calculated in nmol/L after correction for dilution and the dissociation of bound complexes during the DCC treatment (12% for CBG). The affinity of the CBG variants for cortisol was measured using the Scatchard analysis. Prior to conducting the affinity measurement, the culture media was concentrated using *Centricon microconcentrators (Amicon).

[4] = target: T4, human corticosteroid binding globulin (CBG) variant glycosylated solely at position 238 (sites 9, 74, 154, 308, 347 disrupted, Asn to Gln) (Homo sapiens, UniProt P08185, N176Q/N31Q/N330Q/N369Q/N96Q); experiment: Affinity for cortisol by Scatchard analysis, [3H]-cortisol with increasing unlabelled cortisol; details: concentrated CHO culture media, read-out: K8 (affinity for cortisol) (converted)
T4 construct: made in house; host or cells: CHO cells (CHO pro), measured in culture medium
T4 sequence (P08185 23-405 N31Q/N96Q/N176Q/N330Q/N369Q): T1 sequence (P08185 23-405 T262A) with N9Q, N74Q, N154Q, A240T, N308Q, N347Q
Protocol: as §1, §2
(§3) The affinity of the CBG variants for cortisol was measured using the Scatchard analysis.

[5] = target: T5, human corticosteroid binding globulin (CBG) variant glycosylated at positions 74 and 238 (Homo sapiens, UniProt P08185, N176Q/N31Q/N330Q/N369Q); experiment: as above; details: concentrated CHO culture media
T5 construct: in order to isolate a full-length CBG cDNA; made in house; host or cells: CHO cells (CHO pro), measured in culture medium
T5 sequence (P08185 23-405 N31Q/N176Q/N330Q/N369Q): T1 sequence (P08185 23-405 T262A) with N9Q, N154Q, A240T, N308Q, N347Q
Protocol: as §1, §2, §3

[6] = target: T6, human corticosteroid binding globulin (CBG), native (Homo sapiens, UniProt P08185); details: 4° C., physiological pH; read-out: binding affinity of the natural cortisol ligand for CBG; cited from earlier work
T6 sequence (P08185 23-405): T1 sequence (P08185 23-405 T262A) with A240T

**Q.** What does the source list for `C[C@]12CCC(=O)C=C1CC[C@@H]1[C@@H]2[C@@H](O)C[C@@]2(C)[C@H]1CC[C@]2(O)C(=O)CO` [cortisol]?
**A.** steroid-binding activity [1]: complete loss of steroid-binding activity; steroid-binding activity [2]: complete loss of steroid-binding activity; steroid-binding activity [3]: no steroid-binding activity; Kd [4]: 9.09 nM; K4 (steroid-binding affinity) [5]: 1.9e+08 M⁻¹; Kd [6]: ~0.7 nM
